Data reported in patent publication US12404283B2, “c-MYC mRNA translation modulators and uses thereof in the treatment of cancer” (Anima Biotech Inc., priority 2022, dated 2025).

Tested on: c-Myc
Assay: c-Myc immunofluorescence assay
Type: cell-based, human
Settings: A549 cells, 24 hours treatment, anti-c-Myc immunofluorescence
Procedure, shortened: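 A549 cells grown 48 h, exposed 24 h to rising compound concentrations, then fixed, permeabilised and stained for c-Myc plus DAPI. Nuclear-segmented c-Myc fluorescence quantified by high-content imaging at 20×; EC50 from logistic dose–response fits.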

Row | SMILES | Myc Efficacy (−LogEC50)
1 | CNC(=O)c1ccc(-c2nc3sc4cc(C(=O)NCCCN5CCCCC5)ccc4n3n2)c(F)c1 [compound 386, 2-(2-fluoro-4-(methylcarbamoyl)phenyl)-N-(3-(piperidin-1-yl)propyl)benzo[4,5]thiazolo [3,2-b][1,2,4]triazole-6-carboxamide] | +++ (+++ ≥6)
2 | NCc1ccc(-c2nc3sc4cc(C(=O)NCCCN5CCCCC5)ccc4n3n2)c(F)c1 [compound 387, 2-(4-(aminomethyl)-2-fluorophenyl)-N-(3-(piperidin-1-yl)propyl)benzo[4,5]thiazolo [3,2-b][1,2,4]triazole-6-carboxamide] | +++ (+++ ≥6)
3 | CCN(CC)CCCNC(=O)c1ccc2c(c1)sc1nc(-c3ccc(CN)cc3F)nn12 [compound 388, 2-(4-(aminomethyl)-2-fluorophenyl)-N-(3-(diethylamino)propyl) benzo[4,5]thiazolo[3,2-b][1,2,4]triazole-6-carboxamide] | ++ (++ ≥5 and <6)
4 | CNC(=O)c1ccc(-c2nc3sc4cc(C(=O)NCCCN5CCC(F)CC5)ccc4n3n2)c(F)c1 [compound 389, 2-(2-fluoro-4-(methylcarbamoyl)phenyl)-N-(3-(4-fluoropiperidin-1-yl)propyl)benzo[4,5]thiazolo [3,2-b][1,2,4]triazole-6-carboxamide] | ++ (++ ≥5 and <6)
5 | NCc1ccc(-c2nc3sc4cc(C(=O)NCCCN5CCC(F)CC5)ccc4n3n2)c(F)c1 [compound 390, 2-(4-(aminomethyl)-2-fluorophenyl)-N-(3-(4-fluoropiperidin-1-yl)propyl)benzo[4,5]thiazolo [3,2-b][1,2,4]triazole-6-carboxamide] | ++ (++ ≥5 and <6)
6 | NCc1ccc(-c2nc3sc4cc(C(=O)NCCCN5CCCCC5)ccc4n3n2)cc1 [compound 392, 2-(4-(aminomethyl)phenyl)-N-(3-(piperidin-1-yl)propyl)benzo[4,5]thiazolo [3,2-b][1,2,4]triazole-6-carboxamide] | +++ (+++ ≥6)
7 | O=C(NCCCN1CCCCC1)c1ccc2c(c1)sc1nc(-c3ccc(CNC4CC4)cc3)nn12 [compound 393, 2-(4-((cyclopropylamino)methyl)phenyl)-N-(3-(piperidin-1-yl)propyl)benzo[4,5]thiazolo [3,2-b][1,2,4]triazole-6-carboxamide] | +++ (+++ ≥6)
8 | CCN(CC)CCCNC(=O)c1ccc2c(c1)sc1nc(-c3ccc(CNC4CC4)cc3)nn12 [compound 394, 2-(4-((cyclopropylamino)methyl)phenyl)-N-(3-(diethylamino)propyl)benzo [4,5]thiazolo[3,2-b][1,2,4]triazole-6-carboxamide] | ++ (++ ≥5 and <6)
9 | CCN(CC)CCCNC(=O)c1ccc2c(c1)sc1nc(-c3ccc(CNC4CC4)cc3F)nn12 [compound 395, 2-(4-((cyclopropylamino)methyl)-2-fluorophenyl)-N-(3-(diethylamino)propyl)benzo [4,5]thiazolo[3,2-b][1,2,4]triazole-6-carboxamide] | ++ (++ ≥5 and <6)
10 | O=C(NCCCN1CCCCC1)c1ccc2c(c1)sc1nc(-c3ccc(CNC4CC4)cc3F)nn12 [compound 396, 2-(4-((cyclopropylamino)methyl)-2-fluorophenyl)-N-(3-(piperidin-1-yl)propyl)benzo[4,5]thiazolo [3,2-b][1,2,4]triazole-6-carboxamide] | ++ (++ ≥5 and <6)
11 | CCN(CC)CCCNC(=O)c1ccc2c(c1)sc1nc(-c3ccc(C4(N)CC4)cc3)nn12 [compound 397, 2-(4-(1-aminocyclopropyl)phenyl)-N-(3-(diethylamino)propyl)benzo [4,5]thiazolo[3,2-b][1,2,4]triazole-6-carboxamide] | ++ (++ ≥5 and <6)
12 | NC1(c2ccc(-c3nc4sc5cc(C(=O)NCCCN6CCCCC6)ccc5n4n3)cc2)CC1 [compound 398, 2-(4-(1-aminocyclopropyl)phenyl)-N-(3-(piperidin-1-yl)propyl)benzo[4,5]thiazolo [3,2-b][1,2,4]triazole-6-carboxamide] | ++ (++ ≥5 and <6)
